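1) Cells in 96-well plates. 2) Compound, 48 h, 5 concentrations. 3) Linear interpolation between surrounding doses. 4) Unreached endpoint = highest concentration. Definition used: TGI = concentration required for complete inhibition of growth.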
What was measured:
Experiment in all cases: NCI anticancer screen, dose series, 48 h
786-0 renal = test system: 786-0 renal
A498 renal = test system: A498 renal
A549 NSCLC = test system: A549 NSCLC
ACHN renal = test system: ACHN renal
CAKI-1 renal = test system: CAKI-1 renal
CCRF-CEM leukemia = test system: CCRF-CEM leukemia
COLO 205 colon = test system: COLO 205 colon
DU-145 prostate = test system: DU-145 prostate
EKVX NSCLC = test system: EKVX NSCLC
HCT-116 colon = test system: HCT-116 colon
HCT-15 colon = test system: HCT-15 colon
HL-60(TB) leukemia = test system: HL-60(TB) leukemia
HOP-92 NSCLC = test system: HOP-92 NSCLC
HS 578T breast = test system: HS 578T breast
HT29 colon = test system: HT29 colon
IGROV1 ovarian = test system: IGROV1 ovarian
K-562 leukemia = test system: K-562 leukemia
KM12 colon = test system: KM12 colon
LOX IMVI melanoma = test system: LOX IMVI melanoma
M14 melanoma = test system: M14 melanoma
MALME-3M melanoma = test system: MALME-3M melanoma
MCF7 breast = test system: MCF7 breast
MDA-MB-231 breast = test system: MDA-MB-231 breast
MDA-MB-435 = test system: MDA-MB-435
MDA-N = test system: MDA-N
MOLT-4 leukemia = test system: MOLT-4 leukemia
NCI-H226 lung = test system: NCI-H226 lung
NCI-H23 lung = test system: NCI-H23 lung
NCI-H460 lung = test system: NCI-H460 lung
NCI-H522 lung = test system: NCI-H522 lung
NCI/ADR-RES ovarian = test system: NCI/ADR-RES ovarian
OVCAR-3 ovarian = test system: OVCAR-3 ovarian
OVCAR-4 ovarian = test system: OVCAR-4 ovarian
OVCAR-5 ovarian = test system: OVCAR-5 ovarian
OVCAR-8 ovarian = test system: OVCAR-8 ovarian
PC-3 prostate = test system: PC-3 prostate
RPMI-8226 leukemia = test system: RPMI-8226 leukemia
RXF 393 renal = test system: RXF 393 renal
SF-268 CNS = test system: SF-268 CNS
SF-295 CNS = test system: SF-295 CNS
SF-539 CNS = test system: SF-539 CNS
SK-MEL-2 melanoma = test system: SK-MEL-2 melanoma
SK-MEL-28 melanoma = test system: SK-MEL-28 melanoma
SK-MEL-5 melanoma = test system: SK-MEL-5 melanoma
SN12C renal = test system: SN12C renal
SNB-19 CNS = test system: SNB-19 CNS
SNB-75 CNS = test system: SNB-75 CNS
SR leukemia = test system: SR leukemia
SW-620 colon = test system: SW-620 colon
TK-10 renal = test system: TK-10 renal
U251 CNS = test system: U251 CNS
UACC-257 melanoma = test system: UACC-257 melanoma
UACC-62 melanoma = test system: UACC-62 melanoma
UO-31 renal = test system: UO-31 renal
BT-549 breast = test system: BT-549 breast
HOP-62 NSCLC = test system: HOP-62 NSCLC
SK-OV-3 ovarian = test system: SK-OV-3 ovarian
T-47D breast = test system: T-47D breast

## C[C@]12CCC(O)CC1=CC[C@@H]1[C@@H]2CC[C@]2(C)C(O)[C@H](n3ccnc3)C[C@@H]12 (some centres undefined)
786-0 renal
  TGI: > 100 µM
A498 renal
  TGI: > 100 µM
A549 NSCLC
  TGI: > 100 µM
ACHN renal
  TGI: > 100 µM
CAKI-1 renal
  TGI: > 100 µM
CCRF-CEM leukemia
  TGI: > 100 µM
COLO 205 colon
  TGI: > 100 µM
DU-145 prostate
  TGI: > 100 µM
EKVX NSCLC
  TGI: > 100 µM
HCT-116 colon
  TGI: > 100 µM
HCT-15 colon
  TGI: > 100 µM
HL-60(TB) leukemia
  TGI: 38.3 µM
HOP-92 NSCLC
  TGI: > 100 µM
HS 578T breast
  TGI: > 100 µM
HT29 colon
  TGI: > 100 µM
IGROV1 ovarian
  TGI: > 100 µM
K-562 leukemia
  TGI: > 100 µM
KM12 colon
  TGI: > 100 µM
LOX IMVI melanoma
  TGI: > 100 µM
M14 melanoma
  TGI: > 100 µM
MALME-3M melanoma
  TGI: > 100 µM
MCF7 breast
  TGI: > 100 µM
MDA-MB-231 breast
  TGI: > 100 µM
MDA-MB-435
  TGI: > 100 µM
MDA-N
  TGI: > 100 µM
MOLT-4 leukemia
  TGI: 80.1 µM
NCI-H226 lung
  TGI: > 100 µM
NCI-H23 lung
  TGI: > 100 µM
NCI-H460 lung
  TGI: > 100 µM
NCI-H522 lung
  TGI: > 100 µM
NCI/ADR-RES ovarian
  TGI: > 100 µM
OVCAR-3 ovarian
  TGI: > 100 µM
OVCAR-4 ovarian
  TGI: > 100 µM
OVCAR-5 ovarian
  TGI: > 100 µM
OVCAR-8 ovarian
  TGI: > 100 µM
PC-3 prostate
  TGI: > 100 µM
RPMI-8226 leukemia
  TGI: > 100 µM
RXF 393 renal
  TGI: > 100 µM
SF-268 CNS
  TGI: > 100 µM
SF-295 CNS
  TGI: > 100 µM
SF-539 CNS
  TGI: > 100 µM
SK-MEL-2 melanoma
  TGI: > 100 µM
SK-MEL-28 melanoma
  TGI: > 100 µM
SK-MEL-5 melanoma
  TGI: > 100 µM
SN12C renal
  TGI: > 100 µM
SNB-19 CNS
  TGI: > 100 µM
SNB-75 CNS
  TGI: > 100 µM
SR leukemia
  TGI: > 100 µM
SW-620 colon
  TGI: > 100 µM
TK-10 renal
  TGI: > 100 µM
U251 CNS
  TGI: > 100 µM
UACC-257 melanoma
  TGI: > 100 µM
UACC-62 melanoma
  TGI: > 100 µM
UO-31 renal
  TGI: > 100 µM

## O=C(O)CC1OCC=C2CN3CCC45c6ccccc6NC4C1C2CC35 (centres undefined)
786-0 renal
  TGI: > 100 µM
A498 renal
  TGI: > 100 µM
A549 NSCLC
  TGI: > 100 µM
ACHN renal
  TGI: > 100 µM
BT-549 breast
  TGI: > 100 µM
CAKI-1 renal
  TGI: > 100 µM
CCRF-CEM leukemia
  TGI: > 100 µM
COLO 205 colon
  TGI: > 100 µM
DU-145 prostate
  TGI: > 100 µM
EKVX NSCLC
  TGI: > 100 µM
HCT-116 colon
  TGI: > 100 µM
HCT-15 colon
  TGI: > 100 µM
HL-60(TB) leukemia
  TGI: > 100 µM
HOP-62 NSCLC
  TGI: > 100 µM
HOP-92 NSCLC
  TGI: > 100 µM
HT29 colon
  TGI: > 100 µM
IGROV1 ovarian
  TGI: > 100 µM
K-562 leukemia
  TGI: > 100 µM
KM12 colon
  TGI: > 100 µM
LOX IMVI melanoma
  TGI: > 100 µM
M14 melanoma
  TGI: > 100 µM
MCF7 breast
  TGI: > 100 µM
MDA-MB-231 breast
  TGI: > 100 µM
MDA-MB-435
  TGI: > 100 µM
MDA-N
  TGI: > 100 µM
MOLT-4 leukemia
  TGI: > 100 µM
NCI-H226 lung
  TGI: > 100 µM
NCI-H23 lung
  TGI: > 100 µM
NCI-H460 lung
  TGI: > 100 µM
NCI-H522 lung
  TGI: > 100 µM
NCI/ADR-RES ovarian
  TGI: > 100 µM
OVCAR-3 ovarian
  TGI: > 100 µM
OVCAR-4 ovarian
  TGI: > 100 µM
OVCAR-5 ovarian
  TGI: > 100 µM
OVCAR-8 ovarian
  TGI: > 100 µM
PC-3 prostate
  TGI: > 100 µM
RPMI-8226 leukemia
  TGI: > 100 µM
RXF 393 renal
  TGI: > 100 µM
SF-268 CNS
  TGI: > 100 µM
SF-295 CNS
  TGI: > 100 µM
SF-539 CNS
  TGI: > 100 µM
SK-MEL-28 melanoma
  TGI: > 100 µM
SK-MEL-5 melanoma
  TGI: > 100 µM
SK-OV-3 ovarian
  TGI: > 100 µM
SN12C renal
  TGI: > 100 µM
SNB-19 CNS
  TGI: > 100 µM
SNB-75 CNS
  TGI: > 100 µM
SR leukemia
  TGI: > 100 µM
SW-620 colon
  TGI: > 100 µM
T-47D breast
  TGI: > 100 µM
TK-10 renal
  TGI: > 100 µM
U251 CNS
  TGI: > 100 µM
UACC-257 melanoma
  TGI: > 100 µM
UACC-62 melanoma
  TGI: > 100 µM
UO-31 renal
  TGI: > 100 µM
